The first data set deals with SIRPα signalling induced by A549 cells. Kind of data set: Assay B: SIRPα signalling assay using A549 cells. The following applies: Homo sapiens, 48 h compound incubation, Jurkat PathHunter SIRPaV1 reporter cells, read-out: Inhibition of SIRPα signalling induced by A549 cells: IC50. Type of data set: cell-based. As to the method: (§1) Two cell types are independently used: the Raji cell line (lymphoblast-like human cell line derived from B lymphocytes from a Burkitt's lymphoma patient in 1963) and A549 cells (adenocarcinoma human alveolar basal epithelial cells).
(§2) Test compounds were dissolved in 100% DMSO and serially diluted into a white 384-well microtiter cell culture plate (PerkinElmer #60076780 in case of Raji assay; PDL-coated plates Greiner #781945 in case of A549 assay), 5000 Raji cells (ATCC #CC86) or 5000 A549 cells (ATCC #CCL-185) in Assay Complete Cell Plating reagent 30 (DiscoverX 93-0563R30B) were added per well. The assay plate was incubated for 48 h at 37° C., 95% humidity and 5% CO2. 15000 reporter cells (Jurkat PathHunter SIRPaV1, DiscoverX #93-1135C19) were added to each well, and the plate was incubated for 5 h at 37° C., 95% humidity and 5% CO2. Bioassay reagent 1 of the PathHunter Bioassay detection kit (DiscoverX 93-0001) was added to each well of the plate using a multichannel pipette followed by a 15 min incubation at room temperature. Afterwards bioassay reagent 2 was added followed by 60 min incubation at room temperature (incubation in the dark). The analysis of the data was performed using the luminescence signal generated by beta-galactosidase in the PathHunter reporter cell line. The luminescence measurement was done using a Pherastar Multi-Mode Reader. Dose-response curves & IC50 data were calculated with 4-parameter sigmoidal dose response formula.
T2 sequence (Q16769 29-361): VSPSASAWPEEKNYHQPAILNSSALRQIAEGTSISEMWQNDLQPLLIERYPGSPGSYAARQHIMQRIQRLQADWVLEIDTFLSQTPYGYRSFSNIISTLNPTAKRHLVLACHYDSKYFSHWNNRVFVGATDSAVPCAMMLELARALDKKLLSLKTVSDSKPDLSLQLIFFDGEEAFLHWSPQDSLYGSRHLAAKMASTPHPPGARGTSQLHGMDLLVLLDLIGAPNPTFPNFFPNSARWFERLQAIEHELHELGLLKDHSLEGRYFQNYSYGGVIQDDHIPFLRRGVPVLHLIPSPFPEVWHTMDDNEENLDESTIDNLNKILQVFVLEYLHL
Turning to `Cn1cnnc1C1(F)CCN(c2c(C#N)cc(C(F)(F)F)cc2-c2cnc3nc(C(F)(F)F)cn3c2)CC1` [Example 22], the half-maximal inhibitory concentration (IC50) worked out at 39 nM.

For `Cn1cnnc1C1CCN(c2c(C#N)cc(C#N)cc2-c2ccc(F)nc2)CC1` [Example 21], the IC50 is 280 nM.

Turning to `Cn1cnnc1C1CCN(c2c(-c3ccc(F)nc3)ccc(C(F)(F)F)c2C#N)CC1` [Example 31], the half-inhibitory concentration (IC50) came to 19 nM.

Consider `Cn1cnnc1C1CCN(c2c(C#N)cc(Cl)cc2-c2cnc3nn(C(C)(C)C)cc3c2)CC1` [Example 17], for which the IC50 stood at 5 nM.

On to `Cn1cnnc1C1(F)CCN(c2c(C#N)cc(C(F)(F)F)cc2-c2ccc(F)nc2)CC1` [Example 4], for which the IC50 turned out to be 12 nM.

`Cn1cnnc1C1CCN(c2c(-c3ccc(F)nc3)ccc(F)c2C#N)CC1` [Example 14]: the IC50 amounted to 24 nM.

Turning to `COC(=O)c1cc(C#N)c(N2CCC(c3nncn3C)CC2)c(-c2ccc(F)nc2)c1` [Example 15], the 50% inhibitory concentration (IC50) was 218 nM.

As to `Cn1cnnc1C1(F)CCN(c2c(C#N)cc(C(F)(F)F)cc2-c2cnc3nn(C(F)(F)F)cc3c2)CC1` [Example 36], the half-inhibitory concentration (IC50) worked out at 9 nM.

System in another data set: not listed separately
Briefly: Assay C: Permeability in CACO-2 cells. The data set is classed as in vitro ADME. The note with it: human, pH 7.2; Caco-2, permeability B−A/permeability A−B. On the procedure:
Caco-2 cells (1-2×10^5 cells/1 cm^2 area) are seeded on filter inserts (Costar transwell polycarbonate or PET filters, 0.4 μm pore size) and cultured (DMEM) for 10 to 25 days. Compounds are dissolved in appropriate solvent (like DMSO, 1-20 mM stock solutions). […] The transport solution (TL) is applied to the apical or basolateral donor side for measuring A-B or B-A permeability (3 filter replicates), respectively. Samples are collected at the start and end of experiment from the donor and at various time intervals for up to 2 hours also from the receiver side for concentration measurement by HPLC-MS/MS or scintillation counting. Sampled receiver volumes are replaced with fresh receiver solution.
Efflux ratio (ER)=permeability B−A/permeability A−B
As for `Cn1cnnc1C1(F)CCN(c2c(C#N)cc(C(F)(F)F)cc2-c2cnc3nc(C(F)(F)F)cn3c2)CC1` [Example 22], the efflux ratio was 10.5.

Turning to `Cn1cnnc1C1CCN(c2c(C#N)cc(C#N)cc2-c2ccc(F)nc2)CC1` [Example 21], the efflux ratio was 39.1.

Regarding `Cn1cnnc1C1CCN(c2c(-c3ccc(F)nc3)ccc(C(F)(F)F)c2C#N)CC1` [Example 31], the efflux ratio was 3.5.

Turning to `Cn1cnnc1C1CCN(c2c(C#N)cc(Cl)cc2-c2cnc3nn(C(C)(C)C)cc3c2)CC1` [Example 17], the efflux ratio was 21.2.

With `Cn1cnnc1C1(F)CCN(c2c(C#N)cc(C(F)(F)F)cc2-c2ccc(F)nc2)CC1` [Example 4], the efflux ratio was 1.3.

Regarding `Cn1cnnc1C1CCN(c2c(-c3ccc(F)nc3)ccc(F)c2C#N)CC1` [Example 14], the efflux ratio came to 6.7.

As to `COC(=O)c1cc(C#N)c(N2CCC(c3nncn3C)CC2)c(-c2ccc(F)nc2)c1` [Example 15], the efflux ratio worked out at 9.2.

In the case of `Cn1cnnc1C1(F)CCN(c2c(C#N)cc(C(F)(F)F)cc2-c2cnc3nn(C(F)(F)F)cc3c2)CC1` [Example 36], the efflux ratio worked out at 6.7.

The data set is the same for the next values; noted with them: human; Caco-2, apical to basolateral, pH 7.2.
In the case of `Cn1cnnc1C1(F)CCN(c2c(C#N)cc(C(F)(F)F)cc2-c2cnc3nc(C(F)(F)F)cn3c2)CC1` [Example 22], the Papp A→B was 2.1 ×10⁻⁶ cm/s.

For the molecule `Cn1cnnc1C1CCN(c2c(C#N)cc(C#N)cc2-c2ccc(F)nc2)CC1` [Example 21], the Papp A→B was 1.1 ×10⁻⁶ cm/s.

`Cn1cnnc1C1CCN(c2c(-c3ccc(F)nc3)ccc(C(F)(F)F)c2C#N)CC1` [Example 31] had a Papp A→B of 22 ×10⁻⁶ cm/s.

`Cn1cnnc1C1CCN(c2c(C#N)cc(Cl)cc2-c2cnc3nn(C(C)(C)C)cc3c2)CC1` [Example 17] displayed an apparent permeability from apical to basolateral (Papp A→B) of 2.5 ×10⁻⁶ cm/s.

For the molecule `Cn1cnnc1C1(F)CCN(c2c(C#N)cc(C(F)(F)F)cc2-c2ccc(F)nc2)CC1` [Example 4], the apparent permeability from apical to basolateral (Papp A→B) turned out to be 40.5 ×10⁻⁶ cm/s.

With `Cn1cnnc1C1CCN(c2c(-c3ccc(F)nc3)ccc(F)c2C#N)CC1` [Example 14], the Papp A→B worked out at 9.6 ×10⁻⁶ cm/s.

As to `COC(=O)c1cc(C#N)c(N2CCC(c3nncn3C)CC2)c(-c2ccc(F)nc2)c1` [Example 15], the apical-to-basolateral permeability (Papp A→B) was found to be 5.3 ×10⁻⁶ cm/s.

In turn, `Cn1cnnc1C1(F)CCN(c2c(C#N)cc(C(F)(F)F)cc2-c2cnc3nn(C(F)(F)F)cc3c2)CC1` [Example 36] registered an apical-to-basolateral permeability (Papp A→B) of 5.7 ×10⁻⁶ cm/s.

The subject of the next data set is SIRPα signalling induced by Raji cells. Briefly: Assay B: SIRPα signalling assay using Raji cells. The data set is classed as cell-based. The following applies: Homo sapiens, 48 h compound incubation, Jurkat PathHunter SIRPaV1 reporter cells, read-out: Inhibition of SIRPα signalling induced by Raji cells: IC50. On the procedure: as §1, §2
On to `Cn1cnnc1C1(F)CCN(c2c(C#N)cc(C(F)(F)F)cc2-c2cnc3nc(C(F)(F)F)cn3c2)CC1` [Example 22], for which the half-maximal inhibitory concentration (IC50) is 17 nM.

Consider `Cn1cnnc1C1CCN(c2c(C#N)cc(C#N)cc2-c2ccc(F)nc2)CC1` [Example 21], for which the IC50 worked out at 324 nM.

`Cn1cnnc1C1CCN(c2c(-c3ccc(F)nc3)ccc(C(F)(F)F)c2C#N)CC1` [Example 31]: the half-maximal inhibitory concentration (IC50) is 77 nM.

Consider `Cn1cnnc1C1CCN(c2c(C#N)cc(Cl)cc2-c2cnc3nn(C(C)(C)C)cc3c2)CC1` [Example 17], for which the half-inhibitory concentration (IC50) was found to be 17 nM.

Take `Cn1cnnc1C1(F)CCN(c2c(C#N)cc(C(F)(F)F)cc2-c2ccc(F)nc2)CC1` [Example 4]: the IC50 came to 17 nM.

For the molecule `Cn1cnnc1C1CCN(c2c(-c3ccc(F)nc3)ccc(F)c2C#N)CC1` [Example 14], the half-inhibitory concentration (IC50) was found to be 124 nM.

For the molecule `COC(=O)c1cc(C#N)c(N2CCC(c3nncn3C)CC2)c(-c2ccc(F)nc2)c1` [Example 15], the half-inhibitory concentration (IC50) was found to be 312 nM.

For `Cn1cnnc1C1(F)CCN(c2c(C#N)cc(C(F)(F)F)cc2-c2cnc3nn(C(F)(F)F)cc3c2)CC1` [Example 36], the IC50 came out at 8 nM.

In another data set the target is T1, QPCTL (Homo sapiens, UniProt Q9NXS2).
T1 construct: made in house
T1 sequence (Q9NXS2 whole entry): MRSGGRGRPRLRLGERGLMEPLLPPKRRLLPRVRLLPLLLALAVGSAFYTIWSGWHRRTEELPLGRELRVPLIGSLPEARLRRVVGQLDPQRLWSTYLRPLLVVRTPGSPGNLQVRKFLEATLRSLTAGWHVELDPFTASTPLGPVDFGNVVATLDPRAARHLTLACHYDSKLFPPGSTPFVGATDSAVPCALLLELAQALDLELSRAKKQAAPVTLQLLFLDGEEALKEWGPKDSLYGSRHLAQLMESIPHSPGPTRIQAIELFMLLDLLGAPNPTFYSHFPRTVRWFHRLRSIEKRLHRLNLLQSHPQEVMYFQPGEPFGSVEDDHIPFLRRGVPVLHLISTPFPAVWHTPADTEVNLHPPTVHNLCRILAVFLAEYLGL
Kind of data set: Assay A: biochemical QPCTL activity assay (MALDI-TOF MS, CD47 peptide substrate). The following applies: 0.5 nM enzyme, 10 μM CD47 peptide substrate; read-out: Inhibition of QPCTL: IC50. As to the method:
(§3) QPCT or QPCTL dependent conversion of N-terminal glutamine to pyroglutamate of CD47 was monitored via MALDI-TOF MS. Test compounds were dissolved in 100% DMSO and serially diluted into clear 1,536-well microtiter plates. Enzymatic reactions were set up in assay buffer containing 20 mM Tris pH 7.5, 0.1 mM TCEP, 0.01% BSA, and 0.001% Tween20. […] The plates were incubated for 10 min in a humidified incubator at 24° C. Subsequently, 2.5 µL of CD47 peptide substrate surrogate (^19[…]^33) was added to each well (final concentration: 10 μM for QPCTL/20 μM for QPCT). The plates were mixed for 30 sec at 1,000 rpm and subsequently incubated for 40 min in a humidified incubator at 24° C. […] The plates were sealed with an adhesive foil, mixed for 30 s at 1,000 rpm and stored at room temperature until preparation of the MALDI target plates. MALDI target plates were prepared as described previously. […] QPCT or QPCTL activity was monitored by calculating the ratio between product and internal standard signals followed by normalization to high (100% activity) and low (0% activity) controls. Determination of compound potencies was obtained by fitting the dose-response data to a four-parameter logistical equation.
Regarding `Cn1cnnc1C1(F)CCN(c2c(C#N)cc(C(F)(F)F)cc2-c2cnc3nc(C(F)(F)F)cn3c2)CC1` [Example 22], the IC50 is 1 nM.

Regarding `Cn1cnnc1C1CCN(c2c(C#N)cc(C#N)cc2-c2ccc(F)nc2)CC1` [Example 21], the IC50 worked out at 5 nM.

Consider `Cn1cnnc1C1CCN(c2c(-c3ccc(F)nc3)ccc(C(F)(F)F)c2C#N)CC1` [Example 31], for which the IC50 came to 1 nM.

Take `Cn1cnnc1C1CCN(c2c(C#N)cc(Cl)cc2-c2cnc3nn(C(C)(C)C)cc3c2)CC1` [Example 17]: the concentration for half-maximal inhibition (IC50) was determined as 1 nM.

In the case of `Cn1cnnc1C1(F)CCN(c2c(C#N)cc(C(F)(F)F)cc2-c2ccc(F)nc2)CC1` [Example 4], the IC50 was determined as 2 nM.

Take `Cn1cnnc1C1CCN(c2c(-c3ccc(F)nc3)ccc(F)c2C#N)CC1` [Example 14]: the IC50 is 2 nM.

As for `COC(=O)c1cc(C#N)c(N2CCC(c3nncn3C)CC2)c(-c2ccc(F)nc2)c1` [Example 15], the concentration for half-maximal inhibition (IC50) was determined as 3 nM.

`Cn1cnnc1C1(F)CCN(c2c(C#N)cc(C(F)(F)F)cc2-c2cnc3nn(C(F)(F)F)cc3c2)CC1` [Example 36]: the IC50 is 1 nM.

The next data set addresses T2, QPCT (Homo sapiens, UniProt Q16769).
T2 construct: purchased Origine (so in the source)
Briefly: Assay A: biochemical QPCT activity assay (MALDI-TOF MS, CD47 peptide substrate). The note with it: 0.5 nM enzyme, 20 μM CD47 peptide substrate; read-out: Inhibition of QPCT: IC50. As to the method:
as §3
`Cn1cnnc1C1(F)CCN(c2c(C#N)cc(C(F)(F)F)cc2-c2cnc3nc(C(F)(F)F)cn3c2)CC1` [Example 22]: the IC50 is 1 nM.

For `Cn1cnnc1C1CCN(c2c(C#N)cc(C#N)cc2-c2ccc(F)nc2)CC1` [Example 21], the concentration for half-maximal inhibition (IC50) was 25 nM.

In the case of `Cn1cnnc1C1CCN(c2c(-c3ccc(F)nc3)ccc(C(F)(F)F)c2C#N)CC1` [Example 31], the IC50 was determined as 4 nM.

With `Cn1cnnc1C1CCN(c2c(C#N)cc(Cl)cc2-c2cnc3nn(C(C)(C)C)cc3c2)CC1` [Example 17], the IC50 came out at 1 nM.

With `Cn1cnnc1C1(F)CCN(c2c(C#N)cc(C(F)(F)F)cc2-c2ccc(F)nc2)CC1` [Example 4], the IC50 was 4 nM.

Take `Cn1cnnc1C1CCN(c2c(-c3ccc(F)nc3)ccc(F)c2C#N)CC1` [Example 14]: the IC50 stood at 11 nM.

Regarding `COC(=O)c1cc(C#N)c(N2CCC(c3nncn3C)CC2)c(-c2ccc(F)nc2)c1` [Example 15], the IC50 is 12 nM.

As for `Cn1cnnc1C1(F)CCN(c2c(C#N)cc(C(F)(F)F)cc2-c2cnc3nn(C(F)(F)F)cc3c2)CC1` [Example 36], the IC50 was determined as 1 nM.

Source of the values: patent publication US20240317712A1, “[…] DERIVATIVES AS INHIBITORS OF […]-PEPTIDE CYCLOTRANSFERASE AND […]-PEPTIDE CYCLOTRANSFERASE LIKE PROTEIN” (Boehringer Ingelheim International GmbH, priority 2023, published 2024).
